# pIC50: −log10 of the molar value.
# Tests used:
# [1] = test system: 240 cell lines with known alterations in the MAPK pathway; assay: MEK inhibitor sensitivity in 240 cell lines (Cell Titer Glo, 5 days); format: cell-based; details: cell lines with KRAS, NRAS, BRAF Class I and III mutations, CRAF-alterations
# Experimental: 240 cell lines representative of multiple cancer indications with known alterations in the MAPK pathway, including KRAS, NRAS, HRAS, NF1, EGFR, BRAF and CRAF mutations, were seeded overnight in […], then treated with a 9-point dose response of exemplary MEK inhibitors (starting dose of 100 nM and 3-fold dilution) for 5 days. Cell viability was determined using a Cell Titer Glo (CTG) assay. Percent inhibition was calculated for all compounds utilizing staurosporine (1000 nM) treatment as a measure of maximal inhibition. IC50 and area under the curve (AUC) values were determined by fitting a variable slope, four parameters curve to the compound concentration to percent inhibition relationship.
# [2] = test system: NCI-H2122 xenograft (KRAS G12C); assay: In vivo efficacy, NCI-H2122 xenograft model; parameters: species or system mouse; details: 3 mg/kg QD, Day 31
# Experimental: The antitumor activity of exemplary MEK inhibitor compounds is evaluated in vivo using human cell line derived xenografts (CDX) grown in immunodeficient mice. For these studies, AsPC1 (pancreatic cell line with KRAS G12D mutation), NCI-H2122 (lung cell line with KRAS G12C mutation), and 5637 (bladder cell line with CRAF amplification) models are used. In addition, HCT-116 (colorectal cell line with KRAS G13D mutation), SKM-1 (AML cell line with KRAS K117N mutation), and OCI-AML-3 (AML cell line with NRAS Q61L mutation) models are used. The tumor cell lines (AsPC-1, NCI-H2122, 5637, and HCT-116 cells) are maintained in vitro as monolayer culture in medium at 37° C. in an atmosphere of 5% CO2 in air. The tumor cell lines (SKM-1 and OCI-AML-3 cells) are maintained in vitro as a suspension in medium at 37° C. in an atmosphere of 5% CO2 in air. The tumor cells are routinely sub-cultured before confluence by trypsin-EDTA treatment, not to exceed 4-5 passages. The cells growing in an exponential growth phase are harvested for tumor inoculation. AsPC1, NCI-H2122, and OCI-AML-3 tumors are implanted into Balb/c nude mice. HCT-116 tumors are implanted into Nu/Nu mice. 5637 and SKM-1 tumors are implanted into NOG mice. […] Throughout the study, mouse body weight and tumor volume are recorded. The measurement of tumor size is conducted twice weekly with a caliper and recorded. […]
# [3] = test system: CRAF in complex with MEK; assay: CRAF-MEK stabilization in cells (MEK immunoprecipitation, Western); format: cell-based; details: HCT-116 and NCI-H1666 cells, 3 nM, 4 hours
# Source text: The stabilization of ARAF, BRAF and CRAF in complex with MEK in MEK immunoprecipitates isolated from cellular lysates. For these studies, HCT-116 (colorectal cell line with KRAS G13D mutation), SKMEL-2 (melanoma cell line with NRAS Q61K mutation), HT-29 (colorectal cell line with BRAF Class I mutation), NCI-H1755 (lung cancer cell line with BRAF Class II mutation), and NCI-H1666 (lung cancer cell line with BRAF Class III mutation) models are used. The tumor cell lines are maintained in vitro as monolayer culture in medium at 37° C. in an atmosphere of 5% CO2 in air. Cell lines are treated with exemplary MEK inhibitors at a concentration of 3 nM for 4 hours. Cells are lysed and MEK is immunoprecipitated from the lysates overnight. Denatured immunoprecipitates are run on SDS-PAGE, transferred to nitrocellulose membranes and associated ARAF, BRAF, or CRAF are detected by Western analysis. Stabilization was defined as >1.5-fold induction of RAF-MEK interaction over vehicle control.
# [4] = test system: Phosphorylation of MEK1/2 in AsPC1 cells; assay: 4 hour pMEK1/2 MSD Assay; format: cell-based; details: Homo sapiens; AsPC1, 4 hours; read-out: pMEK IC50
# Experimental: AsPC1 cells were seeded at 10,000 cells/well overnight in 96-well plates, then treated with a 12-point dose response of compounds (Starting dose of 1000 nM and 3-fold dilution) for 4 hours. AsPC1 cells are a K-Ras mutant (G12D) pancreatic cancer cell line. Phosphorylation of MEK1/2 on residues Ser217 and Ser221 were detected using a MesoScale Discovery (MSD) assay (MSD Cat #K15129D-2). MEK1/2 phosphorylation levels were normalized to total MEK1/2 protein detected in each well on the same MSD plate. IC50 values were determined by fitting a variable slope, four parameters curve to the compound concentration to normalized Phospho-MEK1/2 relationship.
# [5] = test system: OCI-AML-3 xenograft (NRAS Q61L); assay: In vivo efficacy, OCI-AML-3 xenograft model; parameters: species or system mouse; details: OCI-AML-3 model, Day 15
# Experimental: The antitumor activity of exemplary MEK inhibitor compounds is evaluated in vivo using human cell line derived xenografts (CDX) grown in immunodeficient mice. For these studies, AsPC1 (pancreatic cell line with KRAS G12D mutation), NCI-H2122 (lung cell line with KRAS G12C mutation), and 5637 (bladder cell line with CRAF amplification) models are used. In addition, HCT-116 (colorectal cell line with KRAS G13D mutation), SKM-1 (AML cell line with KRAS K117N mutation), and OCI-AML-3 (AML cell line with NRAS Q61L mutation) models are used. The tumor cell lines (AsPC-1, NCI-H2122, 5637, and HCT-116 cells) are maintained in vitro as monolayer culture in medium at 37° C. in an atmosphere of 5% CO2 in air. The tumor cell lines (SKM-1 and OCI-AML-3 cells) are maintained in vitro as a suspension in medium at 37° C. in an atmosphere of 5% CO2 in air. The tumor cells are routinely sub-cultured before confluence by trypsin-EDTA treatment, not to exceed 4-5 passages. The cells growing in an exponential growth phase are harvested for tumor inoculation. AsPC1, NCI-H2122, and OCI-AML-3 tumors are implanted into Balb/c nude mice. HCT-116 tumors are implanted into Nu/Nu mice. 5637 and SKM-1 tumors are implanted into NOG mice. Each mouse is inoculated subcutaneously on the right flank with tumor cells in a 1:1 mixture with matrigel. Tumors are allowed to grow to approximately 150-200 mm^3. At this time, mice are assigned to groups such that the mean tumor volume is the same for each treatment group. The MEK inhibitor compound treatments are administrated to the tumor-bearing mice via oral gavage. Throughout the study, mouse body weight and tumor volume are recorded. The measurement of tumor size is conducted twice weekly with a caliper and recorded. The tumor volume (mm^3) is estimated using the formula: TV=a×b^2/2, where “a” and “b” are long and short diameters of a tumor, respectively.
structure (smiles),measurement,setting,value
"CNS(=O)(=O)Nc1cccc(Oc2c(C(=O)NC3CC3)c(Nc3ccc(I)cc3F)n(C)c(=O)c2C)c1Cl [Compound I-2, 4-(2-chloro-3-((N-methylsulfamoyl)amino)phenoxy)-N-cyclopropyl-2-((2-fluoro-4-iodophenyl)amino)-1,5-dimethyl-6-oxo-1,6-dihydropyridine-3-carboxamide]",sensitivity compared to RAS/RAF wild-type cell lines,[1],increased sensitivity
same,average body weight loss,[2],1.5%
same,percent TGI,[2],104%
same,MEK inhibitor-induced MEK-CRAF stabilization,[3],stabilization was observed
same,pIC50,[4],> 7.00
same,average body weight loss,[5]; 1 mg/kg QD,2.9%
same,percent TGI,[5]; 1 mg/kg QD,94.8%
same,average body weight loss,[5]; 3 mg/kg QD,7.8%
same,percent TGI,[5]; 3 mg/kg QD,98.6%
same,percent TGI,[5]; 6 mg/kg QOD,95.2%
same,weight gain,[5]; 6 mg/kg QOD,3.3%

# Source: US20230382863A1, “MEK INHIBITORS AND USES THEREOF” (Ikena Oncology, Inc., priority 2022, published 2023)
